Assay: Solubility test of xylose in solvent systems suitable as organosolv treatment liquid
Assay type: physicochemical
Details: 20° C., stirred 24 h, based on total weight of the xylose added
Description: The solubility of xylose (>99% pure, VWR) in different solvent systems, that are suitable to be used as treatment liquid during organosolv, is tested. Xylose was used as representative of all monomeric sugars, as it is the most abundant carbohydrate found in hemicellulose present in hardwoods and herbaceous biomass and thus in corresponding organosolv liquors. The indicated amount of xylose was added to each solvent system at 20° C. and the suspension was mechanically stirred for 24 h. Hereafter, the saturated solution containing remaining xylose was allowed to settle for 3 h and the liquid was removed. The residue was dried and the amount of undissolved xylose was determined.

`O=C[C@H](O)[C@@H](O)[C@H](O)CO` [xylose] gave a xylose not dissolved (acetone (100%), 2.7 wt % xylose added) of 99.1 wt %, a xylose not dissolved (ethanol (100%), 2.5 wt % xylose added) of 82.2 wt % and a xylose not dissolved (water/acetone 1.9/98.1 (w/w), 2.7 wt % xylose added) of 99.1 wt %. The xylose not dissolved (water/acetone 4.9/95.1 (w/w), 2.7 wt % xylose added) was 93.0 wt %, the xylose not dissolved (water/acetone 8.4/91.6 (w/w), 2.0 wt % xylose added) was 79.1 wt % and the xylose not dissolved (water/acetone 9.9/90.1 (w/w), 2.3 wt % xylose added) was 80.2 wt %. For the same molecule, the xylose not dissolved (water/ethanol 4.3/95.7 (w/w), 2.2 wt % xylose added) was 49.7 wt %, the xylose not dissolved (water/ethanol 4.7/95.3 (w/w), 2.3 wt % xylose added) was 46.2 wt % and the xylose not dissolved (water/ethanol 7.8/92.2 (w/w), 2.3 wt % xylose added) was 16.6 wt %. It also gave a xylose not dissolved (water/ethanol 9.7/90.3 (w/w), 2.3 wt % xylose added) of 0.0 wt %.
